{
  "source": "patent US8623924B2",
  "about": "“Compositions and methods for modulating metabolic pathways” (Nusirt Sciences, Inc., priority 2011, dated 2014)",
  "key": {"[1]": {"tested_on": "adipocytes (3T3-L1) and myotubes (C2C12)", "assay": "Fatty acid oxidation screening and dose-response, cell type both or not stated", "type": "cell-based", "conditions": "for concentrations that exert no effect (dose-response curves; sub-therapeutic dose): highest dose that exerted no effect on fatty acid oxidation; for independent activity in stimulating fatty acid oxidation (dose-response): compound alone; for synergy with HMB or leucine in stimulating fatty acid oxidation: compound at its no-effect concentration with HMB 5 μM or leucine 0.5 mM"}, "[2]": {"conditions": "in vivo; cited from earlier work"}, "c2c12 myotubes [3]": {"tested_on": "c2c12 myotubes", "assay": "Glucose utilization (extracellular acidification) in C2C12 myotubes", "type": "cell-based", "conditions": "HMB 5 μM, leucine 0.5 mM, resveratrol 200 nM, other components at their no-effect concentration", "experimental": "All compounds were tested for potential to independently or synergistically modulate sirtuin signaling either by direct stimulation or indirect via upstream signaling via AMPK. A key outcome of Sirt1 signaling is stimulation of PGC1-α and subsequent stimulation of mitochondrial biogenesis and fatty acid oxidation. Accordingly, fatty acid oxidation, measured as palmitate-induced oxygen consumption as described below, was utilized as a sensitive first level of screening for aerobic mitochondrial metabolism. A dose-response curve for fatty acid oxidation was established for each compound studied, and a “sub-therapeutic dose” was defined as the highest dose that exerted no effect in this system. […] Following assessment of fatty acid oxidation, Sirt1 activity, AMPK activity, mitochondrial biogenesis and glucose utilization (measured as glucose-induced extracellular acidification in the absence of fatty acids in the media) were assessed for lead combinations and appropriate controls. Glucose Utilization: In the absence of a fatty acid source and oxidative metabolism, glycolysis and subsequent lactate production results in extracellular acidification, which was also measured using a Seahorse Bioscience XF24 analyzer. […] Data for each sample were normalized to the pre-glucose injection baseline for that sample and expressed as % change from that baseline. […]"}, "SIRT1": {"target": "T1, SIRT1 (Homo sapiens, UniProt Q96EB6)", "T1 construct": "purchased ENZO Life Sciences International, Inc. BML-AK555", "T1 sequence (Q96EB6 1-747)": "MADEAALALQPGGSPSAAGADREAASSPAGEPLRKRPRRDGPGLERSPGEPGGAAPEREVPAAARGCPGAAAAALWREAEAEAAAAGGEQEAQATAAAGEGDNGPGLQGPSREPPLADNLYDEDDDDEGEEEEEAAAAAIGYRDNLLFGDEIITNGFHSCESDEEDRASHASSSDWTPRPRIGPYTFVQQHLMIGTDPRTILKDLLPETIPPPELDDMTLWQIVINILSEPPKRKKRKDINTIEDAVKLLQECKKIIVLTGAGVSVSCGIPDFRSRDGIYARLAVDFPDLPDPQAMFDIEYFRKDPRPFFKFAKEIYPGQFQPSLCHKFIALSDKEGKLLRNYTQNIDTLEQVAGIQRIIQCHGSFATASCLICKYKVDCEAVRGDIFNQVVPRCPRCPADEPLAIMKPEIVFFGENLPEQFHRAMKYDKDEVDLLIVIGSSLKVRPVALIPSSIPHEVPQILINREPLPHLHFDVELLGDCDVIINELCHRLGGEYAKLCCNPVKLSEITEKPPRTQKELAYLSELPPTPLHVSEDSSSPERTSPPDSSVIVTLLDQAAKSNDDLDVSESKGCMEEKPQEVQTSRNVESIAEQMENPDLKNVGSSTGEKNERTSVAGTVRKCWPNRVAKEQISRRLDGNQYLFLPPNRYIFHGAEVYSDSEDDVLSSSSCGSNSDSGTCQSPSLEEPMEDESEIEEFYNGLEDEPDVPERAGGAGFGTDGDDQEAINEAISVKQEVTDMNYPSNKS", "assay": "SIRT1 activity, cell-free fluorimetric deacetylation assay", "type": "biochemical", "conditions": "cell-free system", "experimental": "SIRT1 activity was measured by using the SIRT1 Fluorimetric Drug Discovery Kit (BML-AK555, ENZO Life Sciences International, Inc. PA, USA). In this assay, SIRT1 activity is assessed by the degree of deacetylation of a standardized substrate containing an acetylated lysine side chain. The substrate utilized is a peptide containing amino acids 379-382 of human p53 (Arg-His-Lys-Lys[Ac]), an established target of SIRT1 activity; SIRT1 activity is directly proportional to the degree of deacetylation of Lys-382. Samples were incubated with peptide substrate (25 μM), and NAD^+ (500 μM) in a phosphate-buffered saline solution at 37° C. on a horizontal shaker for 45 minutes. The reaction was stopped with the addition of 2 mM nicotinamide and a developing solution that binds to the deacetylated lysine to form a fluorophore. Following 10 minutes incubation at 37° C., fluorescence was read in a plate-reading fluorometer at an excitation wavelength of 360 nm and an emission wavelength of 450 nm. […] A standard curve was constructed using deacetylated substrate (0-10 μM)."}, "[4]": {"conditions": "db/db mice"}, "[5]": {"assay": "Plasma insulin, glucose and HOMAIR in db/db mice", "type": "in vivo"}, "[6]": {"assay": "Insulin tolerance test in db/db mice", "type": "in vivo"}, "Adipocytes (3T3-L1)": {"tested_on": "Adipocytes (3T3-L1)", "assay": "Fatty acid oxidation (3H-palmitate) in 3T3-L1 adipocytes", "type": "cell-based", "conditions": "high (25 mM) glucose, 4 hours; leucine 0.5 mM, HMB 5 uM, resveratrol 200 nM; vs. control", "experimental": "High glucose medium reduced fatty acid oxidation by 46% (p<0.05).\nFatty acid oxidation was measured using ^3H-labeled palmitate oxidation, with the ^3H label trapped as water as a result of the fat oxidation. The ^3H was then measured via scintillation counter."}, "[7]": {"tested_on": "PGC-1α, NRF-1 and UCP3 genes", "assay": "Expression of mitochondrial regulatory and component genes", "type": "cell-based"}, "[8]": {"tested_on": "myotube mitochondrial biogenesis", "assay": "Myotube mitochondrial biogenesis (NAO binding), Example 1", "type": "cell-based", "conditions": "assessed fluorometrically via NAO binding", "experimental": "(§1) We next investigated the role of intact leucine (0-0.5 mM) vs. its metabolites, α-ketoisocaproic acid (KIC) (0-0.5 mM) and HMB (0-50 μM). […] Both leucine and HMB increased myotube mitochondrial biogenesis (assessed fluorometrically via NAO binding) by ˜50%, (p<0.005, FIG. 3)."}, "c2c12 myotubes [9]": {"tested_on": "c2c12 myotubes", "assay": "Fatty acid oxidation (FAO) in c2c12 myotubes, Example 1", "type": "cell-based", "conditions": "preserved in presence and absence of 20 nM rapamycin", "experimental": "We have shown that catabolic systems are also stimulated to fuel this process, resulting in increased mitochondrial biogenesis and fatty acid oxidation (FAO). To address the mechanism of this effect, we first determined its mTOR-dependence by assessing leucine stimulation of FAO in the presence and absence of 20 nM rapamycin; although rapamycin inhibited FAO in c2c12 myotubes, the degree of leucine stimulation was preserved (˜50%, p<0.03; FIG. 1).\nas §1"}, "Sirt3": {"target": "T2, Sirt3 (Mus musculus, UniProt Q8R104)", "T2 construct": "endogenous in cells; host or cells: 3T3-L1 adipocytes (mitochondrial protein)", "T2 sequence (Q8R104 1-334)": "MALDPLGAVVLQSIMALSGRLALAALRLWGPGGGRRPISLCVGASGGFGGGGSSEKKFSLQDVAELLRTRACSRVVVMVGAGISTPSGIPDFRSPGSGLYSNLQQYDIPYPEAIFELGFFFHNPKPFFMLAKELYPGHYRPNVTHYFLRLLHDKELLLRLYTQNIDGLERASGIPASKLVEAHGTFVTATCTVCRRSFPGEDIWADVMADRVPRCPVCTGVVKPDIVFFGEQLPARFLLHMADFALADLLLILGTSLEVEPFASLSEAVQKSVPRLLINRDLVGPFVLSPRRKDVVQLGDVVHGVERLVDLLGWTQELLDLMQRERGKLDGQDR", "assay": "Sirt3 activity in mitochondrial protein of treated 3T3-L1 adipocytes", "type": "cell-based", "conditions": "4 hours, leucine 0.5 mM, HMB 5 uM, resveratrol 200 nM"}, "[10]": {"conditions": "high dose metformin 300 mg/kg bw"}},
  "note": "“Also recorded” adds a separate entry of the source.",
  "data": [
    {"molecule": "O=C(O)/C=C/c1ccc(O)c(O)c1", "note": "[Caffeic acid]", "values": [
      {"measurement": "concentrations that exert no effect (dose-response curves; sub-therapeutic dose)", "setting": "[1]", "result": "≤ 1000", "unit": "nM"}
    ]},
    {"molecule": "Cn1c(=O)c2c(ncn2C)n(C)c1=O", "note": "[Caffeine]", "values": [
      {"measurement": "plasma concentration observed following caffeine consumption", "setting": "[2]", "result": "1000 to 10000", "unit": "nM"}
    ]},
    {"molecule": "O=C(O[C@@H]1Cc2c(O)cc(O)cc2O[C@@H]1c1cc(O)c(O)c(O)c1)c1cc(O)c(O)c(O)c1", "note": "[EGCG, epigallocatechin gallate]", "values": [
      {"measurement": "independent activity in stimulating fatty acid oxidation (dose-response)", "setting": "[1]", "result": "minimally active"},
      {"measurement": "synergy with HMB or leucine in stimulating fatty acid oxidation", "setting": "[1]", "result": "do not detect synergistic effects"},
      {"measurement": "increase in glucose utilization in myotubes (extracellular acidification response to glucose)", "setting": "c2c12 myotubes [3]", "result": "no independent effect"}
    ]},
    {"molecule": "O=c1oc2c(O)c(O)cc3c(=O)oc4c(O)c(O)cc1c4c23", "note": "[Ellagic acid]", "values": [
      {"measurement": "independent activity in stimulating fatty acid oxidation (dose-response)", "setting": "[1]", "result": "little activity, even at high concentrations (50 μM)"}
    ]},
    {"molecule": "CC(C)CC(=O)C(=O)O", "note": "[KIC, α-ketoisocaproic acid]", "values": [
      {"measurement": "SIRT1 activity", "setting": "SIRT1", "result": "significantly increased SIRT1 activity"}
    ]},
    {"molecule": "OC[C@@H](O)[C@@H](O[C@H]1O[C@H](CO)[C@@H](O)[C@H](O)[C@H]1O)[C@H](O)[C@@H](O)CO", "note": "[Maltitol, reference compound]", "values": [
      {"measurement": "synergy with HMB or leucine in stimulating fatty acid oxidation", "setting": "[1]", "result": "no synergy was noted"},
      {"measurement": "concentrations that exert no effect (dose-response curves; sub-therapeutic dose)", "setting": "[1]", "result": "≤ 100", "unit": "nM"}
    ]},
    {"molecule": "CN(C)C(=N)N=C(N)N", "note": "[Metformin]", "values": [
      {"measurement": "effects on body composition", "setting": "[4]; [10]", "result": "no significant effects"},
      {"measurement": "effect on visceral fat mass", "setting": "[4]; metformin at any dosage in the absence of HMB", "result": "not affected"},
      {"measurement": "reduction of plasma insulin", "setting": "[5]; 2 weeks, high dose metformin 300 mg/kg bw (1.5 g/kg diet)", "result": 27, "unit": "%"},
      {"measurement": "plasma insulin", "setting": "[5]; 2 weeks, high dose metformin 300 mg/kg bw, control 62", "result": 45, "unit": "uU/mL"},
      {"measurement": "effect on plasma glucose", "setting": "[5]; [10]", "result": "no significant effect"},
      {"measurement": "independent effects on any variable studied", "setting": "[5]; low dose of metformin (150 mg/kg) and very low dose (50 mg/kg)", "result": "no significant independent effects"},
      {"measurement": "decrease in blood glucose over the 30 minute linear portion of the insulin response curve", "setting": "[6]; insulin 0.75 U/kg, standard metformin dose, or low / very low metformin blends", "result": "~60", "unit": "mg/dL"},
      {"measurement": "changes in blood glucose in response to the insulin challenge", "setting": "[6]; low-dose or very low-dose of metformin alone", "result": "minimal changes"}
    ]},
    {"molecule": "O[C@H]1[C@H](O)[C@@H](O)[C@H](O)[C@@H](O)[C@H]1O", "note": "[Myo-inositol, reference compound]", "values": [
      {"measurement": "synergy with HMB or leucine in stimulating fatty acid oxidation", "setting": "[1]", "result": "no synergy"}
    ]},
    {"molecule": "OC[C@@H](O)[C@@H](O)[C@H](O)[C@@H](O)CO", "note": "[Sorbitol, reference compound]", "values": [
      {"measurement": "synergy with HMB or leucine in stimulating fatty acid oxidation", "setting": "[1]", "result": "no synergy"}
    ]},
    {"molecule": "Cn1c(=O)c2[nH]cnc2n(C)c1=O", "note": "[Theophylline, reference compound]", "values": [
      {"measurement": "concentrations that exert no effect (dose-response curves; sub-therapeutic dose)", "setting": "[1]", "result": "below 1 μM"}
    ]},
    {"molecule": "CC(C)C[C@H](N)C(=O)O", "note": "[leucine]", "values": [
      {"measurement": "increase in fatty acid oxidation, high glucose", "setting": "Adipocytes (3T3-L1)", "result": 27, "unit": "%"},
      {"measurement": "expression of mitochondrial regulatory (PGC-1α and NRF-1) and component (UCP3) genes", "setting": "[7]", "result": "stimulated expression"},
      {"measurement": "increase in myotube mitochondrial biogenesis", "setting": "[8]", "result": "~50", "unit": "%"},
      {"measurement": "leucine stimulation of FAO", "setting": "c2c12 myotubes [9]", "result": "~50", "unit": "%"},
      {"measurement": "SIRT1 activity", "setting": "SIRT1", "result": "significantly increased SIRT1 activity"},
      {"measurement": "increase in Sirt3 activity", "setting": "Sirt3", "result": "no significant independent effect; also recorded: no independent effects"}
    ]},
    {"molecule": "CC(C)[C@H](N)C(=O)O", "note": "[valine, reference compound]", "values": [
      {"measurement": "SIRT1 activity", "setting": "SIRT1", "result": "no significant effect"}
    ]},
    {"molecule": "Fucoxanthin", "values": [
      {"measurement": "concentrations that exert no effect (dose-response curves; sub-therapeutic dose)", "setting": "[1]", "result": "≤ 100", "unit": "nM"}
    ]}
  ]
}
